{
  "source": "patent US8101666B2",
  "about": "“Methods and compounds for detection of medical disorders” (Aposense Ltd., priority 2004, dated 2012)",
  "key": {"[1]": {"system": "apoptotic cells in tumor, murine melanoma-derived B16-F10 cells", "test": "Targeting of DC in vivo to apoptotic cells in B16-F10 murine melanoma tumor, fluorescent microscopy", "design": "species or system mice", "settings": "2 mg/mouse i.v., 2 h; for uptake by the apoptotic or the viable tumor cells: data not shown", "method": "Tumors, and especially aggressive malignancies such as melanoma are characterized, in addition to the abnormal tissue proliferation, also by marked apoptosis of tumor cells. The performance of DC in selective targeting of these apoptotic cells within the tumor was therefore examined. Mice (c57/black; 8 weeks old male mice) were injected subcutaneously bilaterally, in the flank, with murine melanoma-derived B16-F10 cells (ATCC CRL-6475; 10^5 cells/mice in a volume of 100 μl). Prior to injection, the cell line was maintained in culture in Dulbecco's modified Eagle's medium (DMEM), supplemented with 4 mM of L-glutamine; 100 units/ml of penicillin; 100 μg/ml of streptomycin; 12.5 units/ml of nystatin and 10% of fetal calf serum (FCS). Tumors were allowed to grow for 14 days, by which they reached a diameter of 5-7 mm.\nDansyl-cysteine (DC), or the control compounds dansyl-glycine or dansyl-serine (2 mg/mouse each in NaPpi buffer, pH. 7.40) was injected intravenously. Two hours later, mice were scarified and the tumors, as well as other organs were taken, and immediately frozen in liquid nitrogen. Frozen sections were then prepared from each of the organs. Uptake of the examined compounds by the tumors or other organs was assessed by fluorescent microscopy."}, "[2]": {"system": "cells undergoing apoptosis, induced by cerebral ischemia due to middle cerebral artery (MCA) occlusion", "test": "Selective targeting of NST739 to cells undergoing cell death following MCA occlusion, fluorescent microscopy of brain sections", "assay_type": "in vivo", "settings": "Balb/C mice", "method": "An in vivo experiment was conducted in mice, in order to show the performance of NST739 in selective binding to cells undergoing apoptosis, induced by cerebral ischemia due to middle cerebral artery (MCA) occlusion.\nStudies were carried out in adult male Balb/C mice, weighing 20-25 g. Cerebral ischemia was induced by unilateral cauterization of the middle cerebral artery. Briefly, mice were anesthetized, and ischemia was induced through a subtemporal approach. The craniotomy was performed at the level where the MCA crossed the lateral olfactory tract. […] All visible branches also where occluded to prevent blood supply by passing. The incision sites were clipped closed and the animal was injected with analgesics and allowed to recover. Twenty-two hours after the middle cerebral artery (MCA) cauterization, NST739 or the control compound BDA (1.4 mg/animal each) were injected i.v. At 24 h from the induction of the injury, and two hours after administration of NST739, mice were anesthetized, sacrificed, and brains were removed into liquid nitrogen for further analysis. […] Frozen sections were prepared. The slices were visualized by fluorescent microscopy."}, "amyloid plaques": {"system": "amyloid plaques", "test": "Detection of amyloid plaques in APP Swedish TG2576 mice, fluorescent microscopy of brain sections", "assay_type": "in vivo", "settings": "i.v., 2 h", "method": "Studies were carried out in one and a half year old APP Swedish TG2576 mice, which have a mutation of APP. BDA (which lacks a free thiol residue) and NST729 were injected i.v., two hours later, mice were anesthetized and brains were removed into liquid nitrogen for further analysis. Frozen section of 10 μm thickness each were prepared, and visualized by fluorescent microscopy."}, "[3]": {"system": "degenerating neuronal cells", "test": "Selective binding of NST729 in vivo to degenerating neuronal cells in a mouse model of motor neuron disease (SOD G93A)", "settings": "SOD G93A transgenic mice, 1.4 mg/animal i.v., 2 h", "method": "Studies were carried out in transgenic mice for SOD with point mutation of G93A. NST729 (1.4 mg / animal in 200 μl 50% Cremophor/ trizma-base 0.1M was injected i.v. After two hours, mice were anesthetized and brain +spinal cord were removed into liquid nitrogen for further analysis. Frozen sections of 10 μm thickness were prepared. The slices were visualized by fluorescent microscopy."}, "[4]": {"system": "brain cells undergoing apoptosis following middle cerebral artery (MCA) cauterization", "test": "Selective binding of NST729 to cells undergoing cell death following MCA occlusion, fluorescent microscopy of brain sections", "assay_type": "in vivo", "settings": "Balb/C mice", "method": "Studies were carried out in adult male Balb/C mice, weighing 20-25 g. Ischemia was induced by unilateral cauterization of the middle cerebral artery. Briefly, mice were anesthetized, and ischemia was induced through a subtemporal approach. The craniotomy was performed at the level where the MCA crossed the lateral olfactory tract. […] All visible branches also were occluded to prevent blood supply by passing. The incision sites were clipped closed and the animal was injected with analgesics and allowed to recover."}},
  "data": [
    {"compound": "CN(C)c1cccc2c(S(=O)(=O)N[C@@H](CS)C(=O)O)cccc12", "note": "[DC, dansyl-cysteine]", "values": [
      {"measurement": "binding to tumor cells undergoing cell death", "setting": "[1]; c57/black mice, B16-F10 tumors", "value": "Extensive binding"},
      {"measurement": "staining of viable tumor cells", "setting": "[1]; c57/black mice, B16-F10 tumors", "value": "remain unstained"},
      {"measurement": "binding to normal, viable small intestine tissue", "setting": "[1]; same animal", "value": "lack of binding"}
    ]},
    {"compound": "CN(C)c1cccc2c(S(=O)(=O)N(CCS)CCCF)cccc12", "note": "[NST739, N-(3-fluoropropyl)-N-(2-thioethyl)-dansylamide]", "values": [
      {"measurement": "binding to cells in the damaged area", "setting": "[2]; 1.4 mg/animal i.v. 22 h after MCA cauterization, brains removed 2 h later", "value": "extensive binding"},
      {"measurement": "staining of cells in other brain regions", "setting": "[2]; MCA cauterization, 1.4 mg/animal i.v., 2 h", "value": "remained unstained"},
      {"measurement": "level of binding (fluorescence) compared with BDA", "setting": "[2]; MCA cauterization, 1.4 mg/animal i.v., 2 h, versus control BDA lacking the thiol group", "value": "significantly higher"}
    ]},
    {"compound": "CN(C)c1cccc2c(S(=O)(=O)N[C@@H](CO)C(=O)O)cccc12", "note": "[dansyl-serine, reference compound]", "values": [
      {"measurement": "uptake by the apoptotic or the viable tumor cells", "setting": "[1]; B16-F10 tumors", "value": "did not manifest a significant uptake"}
    ]},
    {"compound": "CN(C)c1cccc2c(S(=O)(=O)NCC(=O)O)cccc12", "note": "[dansyl-glycine, reference compound]", "values": [
      {"measurement": "uptake by the apoptotic or the viable tumor cells", "setting": "[1]; B16-F10 tumors", "value": "did not manifest a significant uptake"}
    ]},
    {"compound": "CN(C)c1cccc2c(S(=O)(=O)NCCS)cccc12", "note": "[NST729, n-(2-mercaptoethyl)-dansylamide]", "values": [
      {"measurement": "staining of surrounding brain cells", "setting": "amyloid plaques; APP Swedish TG2576 mice", "value": "remained unstained"},
      {"measurement": "intensity of binding to the plaques compared with BDA (fluorescence intensity)", "setting": "amyloid plaques; APP Swedish TG2576 mice, versus control BDA", "value": "markedly higher"},
      {"measurement": "visualization of amyloid plaques", "setting": "amyloid plaques; one and a half year old APP Swedish TG2576 mice", "value": "strongly visualized"},
      {"measurement": "uptake by degenerating neuronal cells and axons (motor nuclei of the pons)", "setting": "[3]", "value": "marked uptake"},
      {"measurement": "uptake by other cells in the same region and cells in other brain regions", "setting": "[3]", "value": "did not manifest such uptake"},
      {"measurement": "binding to cells in the damaged area", "setting": "[4]; 1.4 mg i.v. 22 h after MCA cauterization, brains removed 2 h later", "value": "extensive binding"},
      {"measurement": "number of apoptotic events detected compared with BDA", "setting": "[4]; MCA cauterization, i.v., 2 h, versus control BDA", "value": "significantly higher"},
      {"measurement": "level of binding (fluorescence intensity) compared with BDA", "setting": "[4]; MCA cauterization, i.v., 2 h, versus control BDA lacking the thiol group", "value": "markedly higher"}
    ]}
  ]
}
